We go through 3 molecules from patent publication US20250223303A1, “TRICYCLIC BORONIC ACID DERIVATIVE, AND PREPARATION METHOD THEREFOR AND APPLICATION THEREOF” (priority 2021, published 2025).

Format in all cases: biochemical
For one experiment, the target named is T1, NDM-1 (Klebsiella pneumoniae, UniProt C7C422).
T1 construct: purchased GenScript Biotech Co., Ltd
Put plainly: Enzyme activity test (FC5 fluorescent substrate), NDM-1. To be noted: enzyme 6 pM, substrate FC5 15 μM, MBL buffer. The method, then:
(§1) Compound stock solution: the compound was prepared as a 50 mM DMSO stock solution. […] After aliquoting, the compound stock solutions were stored at −20° C.
(§2) Preparation and storage of antibiotic substrate stock solution: antibiotic fluorescent substrate FC5 was synthesized internally and prepared as a 2 mM stock solution, which was stored at −20° C. after aliquoting.
(§3) Storage of β-lactamases: each […] was synthesized by GenScript Biotech Co., Ltd., and stored at −80° C. after aliquoting to avoid repeated freezing and thawing.
(§4) Preparation of enzyme activity reaction buffer: SBL buffer: PBS pH 7.4, 0.01% (v/v) Triton X-100; MBL buffer: 50 Mm HEPES in PBS pH 7.2, 1 μM ZnSO4, 1 μg/mL BSA, 0.010% v/v Triton X-100
(§5) a) The compound to be tested and buffer were taken out and warmed to room temperature.
(§6) b) Each compound was diluted with DMSO and buffer to the initial experimental concentration (Table 2), and then the compound was diluted 3-fold for a total of 10 concentrations.
(§7) c) Diluted compounds were added to wells 1 to 20 of a 384-well black plate at 2 replicate wells per concentration, 5 μL per well. 5 µL of DMSO was added to wells 21 to 24.
(§8) d) Each enzyme was diluted to the experimental concentration (Table 2) in SBL and MBL buffers, and finally 35 μL/well was added, with a total of 22 wells. 35 μL buffer was added to wells 23 to 24. Wells 21 to well 22 served as the maximum test values (Max), while wells 23 to 24 were designated as the minimum test values (Min).
(§9) e) The 384-well plate was centrifuged quickly and incubated for 10 minutes at room temperature.
(§10) f) The antibiotic substrate FC5 was diluted in buffer to the experimental concentration of each enzyme (Table 2).
(§11) g) The incubated 384-well plate was taken out and FC-5 was added to wells […]. The 384-well plate was centrifuged rapidly and promptly transferred to a microplate reader for reading.
(§12) h) The fluorescence intensity was measured at 355 nm excitation light/460 nm emission light in the microplate reader, and the fluorescence intensity was measured every three minutes for a total of 10 measurements.
(§13) Initial velocity of enzyme reaction V: Subtract the background reading (Min wells) without enzyme from each fluorescence intensity reading, and then perform on a linear regression analysis on each compound concentration group. The slope is the initial velocity of enzyme reaction (V) at each compound concentration.
(§14) Dose-effect curve and IC50 calculation of compounds: The initial velocity of enzyme reaction under the effect of each concentration of compounds was subjected to nonlinear regression fitting. The IC50 (half-maximal inhibitory concentration) of each compound was calculated using the formula […] (Vi: the initial velocity of enzyme reaction at each compound concentration; V0: initial velocity of enzyme reaction without the compound (Max wells). The software used was Graphpad prism 8.

Another experiment concerns the target T2, IMP-1 (Serratia marcescens, UniProt P52699).
T2 construct: purchased GenScript Biotech Co., Ltd
The experiment can be described thus: Enzyme activity test (FC5 fluorescent substrate), IMP-1. The conditions noted are these: enzyme 20 pM, substrate FC5 15 μM. The procedure:
as §1, §2, §3, §4, §5, §6, §7, §8, §9, §10, §11, §12, §13, §14

A further experiment addresses T3, VIM-1 (Pseudomonas aeruginosa, UniProt A0A0F7KYQ8).
T3 construct: purchased GenScript Biotech Co., Ltd
Put plainly: Enzyme activity test (FC5 fluorescent substrate), VIM-1. To be noted: enzyme 70 pM, substrate FC5 10 μM. The method, then:
as §1, §2, §3, §4, §5, §6, §7, §8, §9, §10, §11, §12, §13, §14

A further experiment addresses T4, VIM-2 (Escherichia coli, UniProt Q5U7L7).
T4 construct: purchased GenScript Biotech Co., Ltd
The experiment can be described thus: Enzyme activity test (FC5 fluorescent substrate), VIM-2. To be noted: enzyme 25 pM, substrate FC5 20 μM. The method, then: as §1, §2, §3, §4, §5, §6, §7, §8, §9, §10, §11, §12, §13, §14

The target of another experiment is T5, OXA-10 (Pseudomonas aeruginosa, UniProt P14489).
T5 construct: purchased GenScript Biotech Co., Ltd
Put plainly: Enzyme activity test (FC5 fluorescent substrate), OXA-10. To be noted: enzyme 350 pM, substrate FC5 50 μM. The procedure: as §1, §2, §3, §4, §5, §6, §7, §8, §9, §10, §11, §12, §13, §14

For experiment [1], the system named is four classes of β-lactamase, A, B, C, and D. Put plainly: Enzyme activity test, summary by β-lactamase class. The method, then:
as §1, §2, §3, §4, §5, §6, §7
d) Each enzyme was diluted to the experimental concentration (Table 2) in SBL and MBL buffers, and finally 35 μL/well was added, with a total of 22 wells. 35 μL buffer was added to wells 23 to 24. […]
as §11, §12
(§15) Initial velocity of enzyme reaction V: Subtract the background reading (Min wells) without enzyme from each fluorescence intensity reading, and then perform on a linear regression analysis on each compound concentration group. […]

For a further experiment, the target named is NDM-5 (Klebsiella pneumoniae, UniProt C7C422, M154L/V88L). The experiment can be described thus: Enzyme activity test (FC5 fluorescent substrate), NDM-5. The procedure:
as §1, §2, §3, §4, §5, §6, §7, §8
e) The 384-well plate was centrifuged quickly and incubated for 10 minutes at room temperature. […]
as §11, §12, §15, §14

The target of a further experiment is T6, KPC-2 (Klebsiella pneumoniae, UniProt Q9F663).
T6 construct: purchased GenScript Biotech Co., Ltd
Put plainly: Enzyme activity test (FC5 fluorescent substrate), KPC-2. The conditions noted are these: enzyme 45 pM, substrate FC5 25 μM. The procedure:
as §1, §2, §3, §4, §5, §6, §7, §8, §9, §10, §11, §12, §13, §14

The target in the next experiment is T7, CTX-M-15 (Escherichia coli, UniProt Q9EXV5).
T7 construct: purchased GenScript Biotech Co., Ltd
Put plainly: Enzyme activity test (FC5 fluorescent substrate), CTX-M-15. The conditions noted are these: enzyme 45 pM, substrate FC5 50 μM. The procedure: as §1, §2, §3, §4, §5, §6, §7, §8, §9, §10, §11, §12, §13, §14

The next experiment deals with Ampc (UniProt P24735). The experiment can be described thus: Enzyme activity test (FC5 fluorescent substrate), AmpC. To be noted: enzyme 25 pM, substrate FC5 15 μM. The method, then: as §1, §2, §3, §4, §5, §6, §7, §8, §9, §10, §11, §12, §13, §14
A further experiment deals with T8, OXA-48 (Klebsiella pneumoniae, UniProt Q6XEC0).
T8 construct: purchased GenScript Biotech Co., Ltd
Put plainly: Enzyme activity test (FC5 fluorescent substrate), OXA-48. The conditions noted are these: enzyme 650 pM, substrate FC5 125 μM. The procedure: as §1, §2, §3, §4, §5, §6, §7, §8, §9, §10, §11, §12, §13, §14

For another experiment, the target named is T9, OXA-23 (Acinetobacter baumannii, UniProt Q9L4P2).
T9 construct: purchased GenScript Biotech Co., Ltd
The experiment can be described thus: Enzyme activity test (FC5 fluorescent substrate), OXA-23. The conditions noted are these: enzyme 650 pM, substrate FC5 50 μM. The procedure: as §1, §2, §3, §4, §5, §6, §7, §8, §9, §10, §11, §12, §13, §14

T2 sequence (P52699 19-246 limits assumed): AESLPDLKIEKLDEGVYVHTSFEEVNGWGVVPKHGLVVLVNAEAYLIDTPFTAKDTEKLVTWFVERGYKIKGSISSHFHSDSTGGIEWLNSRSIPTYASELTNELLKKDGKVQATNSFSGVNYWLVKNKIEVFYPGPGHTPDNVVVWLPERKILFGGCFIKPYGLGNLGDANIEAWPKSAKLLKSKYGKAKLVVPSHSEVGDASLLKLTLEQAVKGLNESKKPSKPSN
T1 sequence (C7C422 29-270 limits assumed): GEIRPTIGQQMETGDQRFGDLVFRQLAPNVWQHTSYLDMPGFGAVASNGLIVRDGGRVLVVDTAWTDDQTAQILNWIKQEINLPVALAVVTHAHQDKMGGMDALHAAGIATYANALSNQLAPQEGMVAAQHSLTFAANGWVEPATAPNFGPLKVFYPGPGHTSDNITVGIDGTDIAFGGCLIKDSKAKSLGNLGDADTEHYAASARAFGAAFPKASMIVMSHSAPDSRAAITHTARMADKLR
T5 sequence (P14489 20-266): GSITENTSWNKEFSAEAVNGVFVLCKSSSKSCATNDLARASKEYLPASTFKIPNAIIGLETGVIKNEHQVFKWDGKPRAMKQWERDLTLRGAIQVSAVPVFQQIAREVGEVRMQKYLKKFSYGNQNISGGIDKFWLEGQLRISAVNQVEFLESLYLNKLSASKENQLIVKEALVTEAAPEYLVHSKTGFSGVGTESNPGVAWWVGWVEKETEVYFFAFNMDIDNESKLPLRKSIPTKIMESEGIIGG
T6 sequence (Q9F663 25-293 limits assumed): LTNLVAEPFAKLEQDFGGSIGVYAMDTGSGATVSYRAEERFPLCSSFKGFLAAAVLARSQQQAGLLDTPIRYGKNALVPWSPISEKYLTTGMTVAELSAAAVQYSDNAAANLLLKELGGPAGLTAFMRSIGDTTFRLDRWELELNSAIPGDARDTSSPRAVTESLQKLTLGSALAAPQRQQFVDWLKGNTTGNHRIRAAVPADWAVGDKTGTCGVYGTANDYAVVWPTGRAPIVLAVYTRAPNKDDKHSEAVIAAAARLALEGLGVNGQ
NDM-5, sequence (C7C422 29-270 V88L/M154L): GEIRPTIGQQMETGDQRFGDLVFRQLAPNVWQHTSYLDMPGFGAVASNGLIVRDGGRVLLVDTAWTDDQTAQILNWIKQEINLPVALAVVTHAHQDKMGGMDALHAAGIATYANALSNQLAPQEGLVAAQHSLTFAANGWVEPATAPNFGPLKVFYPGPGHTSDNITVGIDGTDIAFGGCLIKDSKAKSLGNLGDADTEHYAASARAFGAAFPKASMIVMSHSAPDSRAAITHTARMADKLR
T8 sequence (Q6XEC0 23-265 limits assumed): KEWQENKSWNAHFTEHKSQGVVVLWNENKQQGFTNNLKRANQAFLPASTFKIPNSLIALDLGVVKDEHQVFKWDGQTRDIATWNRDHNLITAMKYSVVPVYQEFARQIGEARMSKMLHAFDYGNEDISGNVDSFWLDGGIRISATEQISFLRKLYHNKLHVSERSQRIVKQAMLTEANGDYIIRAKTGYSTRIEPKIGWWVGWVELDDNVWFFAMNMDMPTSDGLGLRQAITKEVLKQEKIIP
T9 sequence (Q9L4P2 18-273): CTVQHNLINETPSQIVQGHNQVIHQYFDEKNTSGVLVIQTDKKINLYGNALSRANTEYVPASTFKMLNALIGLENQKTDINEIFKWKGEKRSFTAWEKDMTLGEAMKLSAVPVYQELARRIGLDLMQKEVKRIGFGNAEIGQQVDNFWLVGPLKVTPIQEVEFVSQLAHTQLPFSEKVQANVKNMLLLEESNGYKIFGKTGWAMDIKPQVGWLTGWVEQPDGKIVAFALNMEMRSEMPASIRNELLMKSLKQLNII
T7 sequence (Q9EXV5 entry or part of it): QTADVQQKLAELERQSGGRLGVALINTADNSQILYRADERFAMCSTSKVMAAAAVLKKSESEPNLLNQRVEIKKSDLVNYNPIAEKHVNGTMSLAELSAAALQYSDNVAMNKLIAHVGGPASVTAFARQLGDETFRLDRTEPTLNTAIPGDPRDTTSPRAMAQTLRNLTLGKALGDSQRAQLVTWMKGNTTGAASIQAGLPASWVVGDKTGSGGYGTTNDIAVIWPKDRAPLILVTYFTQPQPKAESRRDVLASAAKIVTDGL

As usually defined, the IC50 is the concentration at which inhibition is half-maximal. Take `NC(=O)[C@@H]1CC[C@@H]2CN1C(=O)N2OS(=O)(=O)O` [Avibactam, reference compound]: the IC50 against NDM-1 was above 10000 nM; at IMP-1 it was above 10000 nM; at VIM-1, above 10000 nM; against VIM-2 it was above 10000 nM; against OXA-10, 5760 nM. Also, the “activity against class A and class C serine β-lactamases (SBL)” value in experiment [1] (class A and class C SBL) was “good activity”. The “inhibitory effect on class B metal-zinc ion β-lactamase (MBL)” value in experiment [1] (class B MBL) is “no inhibitory effect”. For the same molecule, in [1] (class D SBL), the “inhibitory activity against the class D serine β-lactamase” value was “low inhibitory activity”.

`O=C(O)c1c(S[C@H]2CCOC2)ccc2c1OB(O)[C@@H]1C[C@H]21` [Compound 4]: the IC50 on NDM-1 was 1.9 nM; on NDM-5, 2.3 nM; against IMP-1 it was below 5.1 nM; against VIM-1, below 0.05 nM; at VIM-2 it was below 0.05 nM; against KPC-2 it was 1.5 nM. Further, the IC50 worked out at 1.1 nM at CTX-M-15; 33.8 nM against Ampc; 3.7 nM against OXA-10; 0.07 nM against OXA-48; 1.3 nM on OXA-23.

Regarding `CN1CC(CCSc2ccc3c(c2C(=O)O)OB(O)[C@@H]2C[C@H]32)C1` [Compound 24-a], the IC50 at NDM-1 was 19.7 nM; against NDM-5, 14.8 nM; against IMP-1 it was below 5.1 nM; against VIM-1, 7.7 nM; against VIM-2, 6 nM; at KPC-2, 3.4 nM. Besides, the IC50 at CTX-M-15 worked out at 3.1 nM; against Ampc it was 63.8 nM; on OXA-10 it was 39.4 nM; against OXA-48, 1 nM; against OXA-23, 1.4 nM.
